In ChEMBL document CHEMBL1145369, “The discovery of 2-amino-3,5-diarylbenzamide inhibitors of IKK-alpha and IKK-beta kinases” (Bioorg Med Chem Lett, 2007):
Calls of active or inactive are those of the source. The calls are words filed in the database; no cut-off is given here.

How the values were obtained:
[1] = molecular target: T1, Inhibitor of nuclear factor kappa-B kinase subunit beta (Homo sapiens, UniProt O14920)
T1 sequence (O14920 whole entry): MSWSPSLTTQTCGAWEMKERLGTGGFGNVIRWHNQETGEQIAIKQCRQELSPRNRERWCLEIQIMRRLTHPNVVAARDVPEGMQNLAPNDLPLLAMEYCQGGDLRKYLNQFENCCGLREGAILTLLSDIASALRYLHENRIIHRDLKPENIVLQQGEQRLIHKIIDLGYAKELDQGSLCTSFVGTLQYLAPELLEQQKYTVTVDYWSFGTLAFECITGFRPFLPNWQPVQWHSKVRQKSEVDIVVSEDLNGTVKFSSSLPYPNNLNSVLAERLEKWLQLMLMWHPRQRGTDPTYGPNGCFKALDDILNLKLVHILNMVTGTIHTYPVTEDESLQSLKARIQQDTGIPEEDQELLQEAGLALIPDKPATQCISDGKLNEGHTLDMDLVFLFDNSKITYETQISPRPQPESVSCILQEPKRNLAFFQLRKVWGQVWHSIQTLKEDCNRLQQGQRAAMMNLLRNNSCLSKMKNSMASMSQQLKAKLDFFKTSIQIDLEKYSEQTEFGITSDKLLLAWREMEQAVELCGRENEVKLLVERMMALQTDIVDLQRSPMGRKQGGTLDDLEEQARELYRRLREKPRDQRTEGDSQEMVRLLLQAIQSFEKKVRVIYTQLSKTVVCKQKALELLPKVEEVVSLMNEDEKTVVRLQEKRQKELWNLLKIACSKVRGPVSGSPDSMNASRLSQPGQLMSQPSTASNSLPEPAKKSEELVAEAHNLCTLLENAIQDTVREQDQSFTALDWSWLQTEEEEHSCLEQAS
Description: Inhibition of human recombinant GST-IKKbeta by TR-FRET assay

[2] = molecular target: T2, Inhibitor of nuclear factor kappa-B kinase subunit epsilon (Homo sapiens, UniProt Q14164)
T2 sequence (Q14164 whole entry): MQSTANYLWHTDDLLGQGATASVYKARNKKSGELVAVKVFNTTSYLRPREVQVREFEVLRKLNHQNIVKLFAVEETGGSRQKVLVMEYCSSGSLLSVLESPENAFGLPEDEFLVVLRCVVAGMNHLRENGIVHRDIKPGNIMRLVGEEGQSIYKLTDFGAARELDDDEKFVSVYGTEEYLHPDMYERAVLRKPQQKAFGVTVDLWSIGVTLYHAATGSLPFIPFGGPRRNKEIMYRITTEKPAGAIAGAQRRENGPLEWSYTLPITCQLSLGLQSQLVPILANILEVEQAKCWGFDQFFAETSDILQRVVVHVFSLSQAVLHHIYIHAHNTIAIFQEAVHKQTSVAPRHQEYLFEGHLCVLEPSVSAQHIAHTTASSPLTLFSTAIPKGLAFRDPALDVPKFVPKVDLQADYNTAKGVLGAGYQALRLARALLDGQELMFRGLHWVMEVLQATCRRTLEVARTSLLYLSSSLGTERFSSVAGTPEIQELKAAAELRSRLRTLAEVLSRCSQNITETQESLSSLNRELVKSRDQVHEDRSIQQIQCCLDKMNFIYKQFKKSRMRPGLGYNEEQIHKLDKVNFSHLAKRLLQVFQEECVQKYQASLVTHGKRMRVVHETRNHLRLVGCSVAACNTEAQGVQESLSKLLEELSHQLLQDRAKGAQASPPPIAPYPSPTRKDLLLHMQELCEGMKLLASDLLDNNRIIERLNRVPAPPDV
Description: Inhibition of human recombinant FLAG-IKKepsilon by TR-FRET assay

[3] = system: Fibroblast; assay: Inhibition of NF-kappaB translocation in TNF-alpha-induced human lung fibroblast cells; type: functional, cell-based
[4] = system: PBMC; assay: Inhibition of LPS-stimulated TNFalpha release in PBMC; type: functional, cell-based; conditions: Homo sapiens
[5] = Inhibition of LPS-stimulated IL6 release in PBMC; type: functional; conditions: Homo sapiens

SMILES | IC50 [1] [µM] | IC50 [2] [µM] | IC50 [5] [µM] | Activity [3] | IC50 [4] [µM]
COc1cc2ncn(-c3cc(OCc4ccccc4S(C)(=O)=O)c(C#N)s3)c2cc1OC [GSK-319347A] | > 15.8 | – | – | – | –
NC(=O)c1cc(-c2ccccc2)cc(-c2ccc(S(=O)(=O)NNCCCN3CCOCC3)cc2)c1N | 0.316 | > 15.8 | – | – | –
CNC(=O)c1cc(-c2ccc(F)cc2)cc(-c2ccc(S(=O)(=O)N3CCCC3)cc2)c1N [GSK-635416A] | > 15.8 | – | – | – | –
NC(=O)c1cc(-c2ccc(F)cc2)cc(-c2ccncc2)c1N [GSK-620503A] | 1.58 | > 15.8 | – | – | –
NC(=O)c1cc(-c2ccc(F)cc2)ccc1N | > 15.8 | > 15.8 | – | – | –
NCCNNS(=O)(=O)c1ccc(-c2cc(-c3ccccc3)cc(C(N)=O)c2N)cc1 | 0.158 | > 15.8 | – | – | –
NC(=O)c1cc(-c2ccncc2)cc(-c2ccccc2)c1N [GSK-625137A] | 3.98 | 3.98 | – | – | –
CS(=O)(=O)Nc1ccc(-c2cc(-c3ccc(Cl)cc3)cc(C(N)=O)c2N)cc1 | 1.58 | > 15.8 | – | – | –
NC(=O)c1cc(-c2ccccc2)cc(-c2ccc(S(N)(=O)=O)cc2)c1N | 0.251 | > 15.8 | – | – | –
NC(=O)c1cc(-c2ccc(F)cc2)cc(-c2ccc(S(N)(=O)=O)cc2)c1N | 0.2 | > 15.8 | – | – | –
NC(=O)c1cc(-c2ccccc2)ccc1N | 15.8 | > 15.8 | – | – | –
COc1c(C(N)=O)cc(-c2ccccc2)cc1-c1ccncc1 | > 15.8 | – | – | – | –
COCCCNNS(=O)(=O)c1ccc(-c2cc(-c3ccccc3)cc(C(N)=O)c2N)cc1 | 0.251 | > 15.8 | – | – | –
CN(C)CCCNNS(=O)(=O)c1ccc(-c2cc(-c3ccccc3)cc(C(N)=O)c2N)cc1 | 0.316 | > 15.8 | – | – | –
NC(=O)c1cc(-c2ccc(F)cc2)cc(-c2ccc(S(=O)(=O)N3CCCC3)cc2)c1N | 0.631 | > 15.8 | – | – | –
NC(=O)c1cc(-c2ccccc2)cc(-c2ccc(CS(N)(=O)=O)cc2)c1N | 3.98 | > 15.8 | – | – | –
CNS(=O)(=O)c1ccc(-c2cc(-c3ccccc3)cc(C(N)=O)c2O)cc1 | 1 | > 15.8 | – | – | –

Second part, led by results:

IC50 [1] [µM] | IC50 [2] [µM] | IC50 [5] [µM] | SMILES | Activity [3] | IC50 [4] [µM]
> 15.8 | – | – | COc1c(C(N)=O)cc(-c2ccncc2)cc1-c1ccccc1 | – | –
1.58 | > 15.8 | – | NC(=O)c1cc(-c2ccc(Cl)cc2)cc(-c2ccc(S(N)(=O)=O)cc2)c1O | – | –
> 15.8 | – | – | COc1c(C(N)=O)cc(-c2ccc(Cl)cc2)cc1-c1ccc(S(N)(=O)=O)cc1 [GSK-711701A] | – | –
> 15.8 | – | – | COc1ccc(-c2ccncc2)cc1C(N)=O [GSK-605714A] | – | –
0.316 | > 15.8 | – | NC(=O)c1cc(-c2ccccc2)cc(-c2ccc(S(=O)(=O)NNC3CC3)cc2)c1N | – | –
0.1 | > 15.8 | 2 | NC(=O)c1cc(-c2ccc(Cl)cc2)cc(-c2ccc(S(N)(=O)=O)cc2)c1N | Active | 0.794
1.58 | > 15.8 | – | CS(=O)(=O)Nc1ccc(-c2cc(-c3ccccc3)cc(C(N)=O)c2N)cc1 [GSK-586581A] | – | –
0.398 | – | – | CS(=O)(=O)c1ccc(-c2cc(C(N)=O)c(N)c(-c3ccc(S(=O)(=O)N4CCCC4)cc3)c2)cc1 | – | –
0.158 | – | – | CS(=O)(=O)c1ccc(-c2cc(C(N)=O)c(N)c(-c3ccc(S(N)(=O)=O)cc3)c2)cc1 | – | –
0.251 | > 15.8 | – | NC(=O)c1cc(-c2ccccc2)cc(-c2ccc(S(=O)(=O)NNCCN3CCCC3)cc2)c1N | – | –
7.94 | > 15.8 | – | NC(=O)c1cc(-c2ccccc2)cc(-c2cccc(S(N)(=O)=O)c2)c1N | – | –
> 15.8 | > 15.8 | – | CN(C)c1cccc(-c2cc(-c3ccccc3)cc(C(N)=O)c2N)c1 | – | –
7.94 | > 15.8 | – | CN(C)S(=O)(=O)c1ccc(-c2cc(-c3ccncc3)cc(C(N)=O)c2O)cc1 | – | –
> 15.8 | – | – | CNC(=O)c1cc(-c2ccc(F)cc2)cc(-c2ccc(S(C)(=O)=O)cc2)c1N | – | –
7.94 | – | – | CS(=O)(=O)Nc1cccc(-c2cc(-c3ccccc3)cc(C(N)=O)c2N)c1 | – | –
0.251 | 1.58 | – | NC(=O)c1cc(-c2ccncc2)cc(-c2ccc(S(N)(=O)=O)cc2)c1N | – | –
